The record followed here is PubChem BioAssay AID463074 (Broad Institute, 2010).

A word on the AC50: it is the concentration giving half of the maximal activity seen.

Activity calls are given as the source filed them.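 How the source made its calls: active means AC50 no more than tenfold above the top dose tested, or full inhibition at every dose with a flat fit (cut at about 19 µM in these data); inconclusive means flat curve fit with inhibition between 30% and 70%, or poor fit; inactive means AC50 more than tenfold above the top dose tested.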

This assay concerns HMLE_sh_eGFP viability, CellTiter-Glo luminescence, 72 h. As to the kind of experiment: cytotoxicity in HMLE control line with eGFP shRNA, dose response, counter-screen for HMLE_sh_ECad selective toxicity project, cell-based, HMLE_sh_eGFP, luminescence (AID 463074).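 Further: potency for loss of viability as luminescence drops below DMSO wells.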 In general terms: Counterscreens check selectivity or assay interference.
Take `CC(C)CN=C(NS(=O)(=O)c1ccccc1)C(Cl)(Cl)Cl`: the AC50 was 3.27 µM.

Turning to `O=C(CNC(=S)N(Cc1ccccc1)Cc1ccccc1F)NCCc1ccc(Cl)cc1`, the AC50 was 6.98 µM.

Take `CCN1CCN(C(=S)Nc2sc(C)c(-c3ccccc3)c2C(=O)OC)CC1`: the AC50 was 4.72 µM.

Turning to `CN(C)CCOc1ccc(-c2c(-c3ccsc3)sc3ccccc23)cc1`, the AC50 is 3.04 µM.

Consider `COc1ccc(C(c2c[nH]c3ccccc23)c2c[nH]c3ccccc23)cc1O`, for which the AC50 is 4.62 µM.

Consider `Cc1cc(F)ccc1S(=O)(=O)Nc1ccccc1C(=O)Nc1ccccc1-c1nc2ccccc2[nH]1`, for which the AC50 was 5.51 µM.

Consider `O=c1[nH]c(NNC(=S)NCc2ccccc2)nc2c1C1(CCCCC1)Cc1ccccc1-2`, for which the AC50 is 3.91 µM.

For the molecule `CC(=O)Nc1ccc(NC(=O)c2nc(S(=O)(=O)Cc3cccc(C)c3)ncc2Cl)cc1`, the AC50 is 4.99 µM.

For the molecule `O=C(c1ccccc1)c1nn(-c2ccc(Cl)cc2)c(=O)cc1C(F)(F)F`, the AC50 is 3.68 µM.

On to `CC(C)=CCOc1ccc([C@@H]2COc3c(ccc4c3C=CC(C)(C)O4)C2)c(O)c1`, for which the AC50 is 3.04 µM.

Take `CC(C)Oc1ccc(CNC(=O)CC(c2ccccc2)c2cc(Cl)ccc2O)cc1` (centres undefined): the AC50 was 5.58 µM.

As for `Cc1cc(C)c(O)c(-c2n[nH]c3c2C(c2cccc(O)c2)N(Cc2ccco2)C3=O)c1` (centres undefined), the AC50 was 6.73 µM.

With `CCN(CC)CCCNC(=O)c1cc2c(Cl)nc3ccccc3c2s1`, the AC50 is 5.16 µM.

`CCOC(=O)c1cnc(-n2nc(C)cc2C)nc1NNc1nc(-c2ccccc2)cc(-c2ccccc2)n1`: the AC50 is 3.25 µM.

In the case of `Cc1ccc(NC(=S)N/N=C/c2c(Cl)cccc2Cl)c(C)c1`, the AC50 was 0.369 µM.

On to `CCSc1nnc(NC(=O)NC(CC)(C(F)(F)F)C(F)(F)F)s1`, for which the AC50 is 12 µM.

`COc1ccc2cc(/C=N/NC(=O)c3ccc(CN(c4cccc(Cl)c4Cl)S(C)(=O)=O)cc3)c(Cl)nc2c1`: the AC50 is 0.211 µM.

Consider `C[C@@H]1O[C@@H](O[C@H]2C[C@@H](O)[C@]3(CO)[C@@H]4C(CC[C@]3(O)C2)[C@@]2(O)CC[C@H](C3COC(=O)C3)[C@@]2(C)C[C@H]4O)[C@H](O)[C@H](O)[C@H]1O` (some centres undefined), for which the AC50 was 0.707 µM.

As to `COc1ccc(-c2sc3ccccc3c2C#CC2(O)CCCCC2)cc1`, the AC50 was 5.38 µM.

On to `C[C@@H]1CN([C@@H](C)CO)C(=O)Cc2cc(NC(=O)Nc3ccc(C(F)(F)F)cc3)ccc2O[C@@H]1CN(C)S(=O)(=O)c1ccc(Cl)cc1`, for which the AC50 was 1.78 µM.

With `CC(C)(C)OC(=O)NCc1ccc(NC(=O)c2nc[nH]c2C(=O)NCCCNC(=O)c2[nH]cnc2C(=O)Nc2ccc(CNC(=O)OC(C)(C)C)cc2)cc1`, the AC50 was 1.92 µM.

Consider `COc1ccc(/C=N/N(c2ccccc2)c2ccccc2)cc1O`, for which the AC50 is 7.09 µM.

As for `Cn1c(O)c(/C=N/Nc2ccccc2)c(=O)n(C)c1=O`, the AC50 was 4.08 µM.

Turning to `COc1ccc(O)c(/C=N/Nc2nc(Nc3ccccc3)nc(-n3nc(C)cc3C)n2)c1`, the AC50 was 3.52 µM.

As for `Cc1ccc(NC(=O)c2nc(S(=O)(=O)Cc3ccccc3C)ncc2Cl)cc1C`, the AC50 was 7.64 µM.

With `COc1ccc(-c2cccc([C@H]3[C@@H]4C=CCC[C@@]4(C)C(=O)N3Cc3ccccc3)c2)cc1`, the AC50 was 7.45 µM.

Turning to `CCOC(=O)N1CCN(CCC(=O)c2ccc(Cl)cc2)CC1`, the AC50 was 14 µM.

For `Nc1ccc(CCN2CCN(c3cccc(C(F)(F)F)c3)CC2)cc1`, the AC50 was 1.42 µM.

Regarding `O=C(NNC1=C(C(=O)C(F)(F)F)CCC1)c1cccc(Cl)c1`, the AC50 was 3.64 µM.

Turning to `O=S(=O)(NCc1ccncc1)c1ccc(S(=O)(=O)NCC2CCCO2)cc1` (centres undefined), the AC50 was > 19.5 µM (inactive).

`Cc1ccc([N+](=O)[O-])cc1-c1ccc(/C=C(\C#N)c2[nH]nc(N)c2C#N)o1`: the AC50 is 4.84 µM.

In the case of `COc1cccc2sc3cc(C#CC4(O)CCCCC4)ccc3c(=O)c12`, the AC50 was 3.1 µM.

In the case of `Oc1ccc(-c2cnc(-c3ccc(O)cc3)nc2)cc1`, the AC50 is 0.304 µM.

With `Cc1nn(-c2nc3ccccc3s2)c(C)c1Oc1ccccc1O`, the AC50 is 5.71 µM.

On to `Cc1cc([N+](=O)[O-])ccc1-c1ccc(/C=N/NC(=O)c2ccc(Br)o2)o1`, for which the AC50 is 3.49 µM.

As for `CC(=O)c1ccc(-c2ccc([C@H]3[C@@H]4C=CCC[C@@]4(C)C(=O)N3Cc3ccccc3)c(F)c2)cc1`, the AC50 is 4.17 µM.

As to `CC1=C(C(=O)OC2CCCC2)C(c2coc3ccccc3c2=O)C2=C(CC(C)(C)CC2=O)N1` (centres undefined), the AC50 was > 19.5 µM (inactive).

Regarding `COc1ccc(/C=C/C(=O)c2ccccc2)cc1Cn1nnc2ccccc21`, the AC50 is 6.28 µM.

As for `CCOC(=O)c1c(C)[nH]c(C(=O)N/N=C\c2ccccc2O)c1C`, the AC50 was 8.76 µM.

With `COc1ccc2sc(-c3ccc(SC)cc3)c(-c3ccc(O)cc3)c2c1`, the AC50 was 2.42 µM.

Regarding `CCOC(=O)c1cnc2ccc(OCC)cc2c1NCc1ccccc1OC`, the AC50 was 4.7 µM.

Regarding `CCOC(=O)N1C(=O)[C@@](c2ccc(Cl)cc2)(C(C)C)N1C(=O)OCC`, the AC50 is 7.14 µM.

As to `Cc1ccc(Nc2cc(C)c3ccc(O)cc3n2)cc1C`, the AC50 is 9.16 µM.

For `O=S(=O)(Nc1ccc(-c2csc(-c3ccccc3)n2)cc1)c1ccccc1`, the AC50 is 5.92 µM.

For the molecule `Cc1ccc(C(=O)NC(=C(Cl)Cl)S(=O)(=O)c2ccc(C)cc2)cc1`, the AC50 is 5.16 µM.

Regarding `O=C(NCCc1c[nH]c2ccccc12)C1CCC(Cn2c(=S)[nH]c3ccccc3c2=O)CC1` (centres undefined), the AC50 is 0.707 µM.

Turning to `Cc1cccc(OCCNc2cc(N3CCN(C)CC3)ccc2[N+](=O)[O-])c1`, the AC50 was 5.34 µM.

For the molecule `CC1CCCC(NCC(O)COC(c2ccc(F)cc2)c2ccc(F)cc2)C1C` (centres undefined), the AC50 is 6.69 µM.

Take `O=C(CC1Nc2ccccc2NC1=O)Nc1ccccc1` (centres undefined): the AC50 is 1.04 µM.

Turning to `COc1cccc(-c2sc3ccccc3c2-c2ccc(OCCN3CCCC3)cc2)c1`, the AC50 was 2.81 µM.

Consider `CCNc1nc(Oc2c(Cl)cccc2Cl)cc(C(F)(F)F)n1`, for which the AC50 is 13.1 µM.

In the case of `C[C@H](CO)N1C[C@H](C)[C@@H](CN(C)S(=O)(=O)c2ccccc2)Oc2ccc(NC(=O)Nc3ccc(C(F)(F)F)cc3)cc2C1=O`, the AC50 was 12.9 µM.

For the molecule `CC(=O)c1ccc(N2CCN(c3ccc(S(=O)(=O)NCCCN(C)C)cc3[N+](=O)[O-])CC2)cc1`, the AC50 is 2.92 µM.

For the molecule `CCC/C(=C1/c2ccccc2C(=O)N1c1ccccc1)c1ccc2[nH]ccc2c1`, the AC50 was 1.67 µM.

`CN1CCc2c(sc(NC(=O)c3ccc(S(=O)(=O)N4CCc5ccccc54)cc3)c2C(N)=O)C1`: the AC50 was 5.01 µM.

For the molecule `S=c1[nH]nc(-c2ccccc2)n1/N=C/c1ccc(-c2ccccc2Cl)o1`, the AC50 was 5.93 µM.

Regarding `CC(C)CCn1c(N)c(C(=O)NCc2cccs2)c2nc3ccccc3nc21`, the AC50 is 7.25 µM.

Take `Cc1ccc(NS(=O)(=O)c2sc3ccc(Cl)cc3c2C)cc1`: the AC50 was 3.78 µM.

Take `O=C(/C=C/c1ccc(F)cc1)c1cc(Br)ccc1O`: the AC50 is 14.1 µM.

For the molecule `Cc1c(C2(O)CCCCC2)[nH]c2cc(C(F)(F)F)ccc12`, the AC50 is 5.83 µM.

As to `O=C(Nc1nc2ccccc2s1)C1CCN(S(=O)(=O)c2cc([N+](=O)[O-])ccc2Cl)CC1`, the AC50 was 19 µM.

In the case of `COc1ccc(OC)c(-c2nnc3n2N=C(c2ccc(OC(F)F)c(OCC4CC4)c2)CS3)c1`, the AC50 was 4.26 µM.

For `Cc1ccn2c(NCc3ccccc3)c(-c3cccc(SC4CCCCC4)c3)nc2c1`, the AC50 is 4.45 µM.

Turning to `O=C(c1ccccc1)c1c[nH]c(C(=O)NNc2ccccc2)c1`, the AC50 was 1.53 µM.

For `COc1ccc(C2c3c(ncn(Cc4ccco4)c3=N)Oc3ccc4ccccc4c32)cc1` (centres undefined), the AC50 is 7.79 µM.

With `Cc1ccn2c(NC3CCCCC3)c(-c3cccc(-c4cccc(Cl)c4)c3)nc2c1`, the AC50 is 6.68 µM.

In the case of `COc1cc2sc(-c3ccccc3OC)c(-c3ccc(O)cc3)c2cc1OC`, the AC50 was 5.22 µM.

For the molecule `O=C(NC(=S)Nc1ccc(N2CCCCC2)c(Cl)c1)c1cccs1`, the AC50 was 8.62 µM.

Consider `CC(C)(C)c1ccc(C(=O)Nc2ccc(N3CCOCC3)cc2)cc1`, for which the AC50 was 17.3 µM.

In the case of `O=C(Nc1ccc2c(c1)OCO2)c1ccc(COc2ccc3c(c2)CCC3)o1`, the AC50 was 6.25 µM.

Take `OC(CNCC1CCCO1)Cn1c2ccc(Cl)cc2c2cc(Cl)ccc21` (centres undefined): the AC50 is 7.38 µM.

As for `C/C(=N\NC(=S)Nc1ccc(F)cc1)c1ccc2c(c1)OCCO2`, the AC50 is 2.36 µM.

`CCOC(=O)C1=C(CSc2nc3ccccc3s2)NC(=O)NC1c1ccc(OC)cc1` (centres undefined): the AC50 is 10.8 µM.

For the molecule `O=C(/C=C/c1ccc2c(c1)OCO2)NCCSCc1c(Cl)cccc1Cl`, the AC50 was 2 µM.

In the case of `COc1ccc(C(=O)/C=C/c2ccc(OCc3ccccc3)cc2)cc1CSCC(=O)O`, the AC50 was 5.81 µM.

For `COc1cccc(Cn2nnc(C(=O)Nc3cc(Cl)ccc3OC)c2N)c1`, the AC50 is 0.935 µM.

In the case of `Cc1nc(C2CCC3C4CCC5=CC(=O)CC[C@]5(C)C4CC[C@]23C)cs1` (some centres undefined), the AC50 is 7.15 µM.

For the molecule `COc1ccc(CC2S/C(=N/N=C/c3ccccc3O)NC2=O)cc1` (centres undefined), the AC50 was 19.2 µM.

On to `Cc1onc(-c2c(Cl)cccc2Cl)c1C(=O)NNc1ccccc1`, for which the AC50 is 2.09 µM.

Turning to `CCCCNc1c(-c2ccc(OC)c(Sc3ccc(OC)cc3)c2)nc2ccccn12`, the AC50 was 4.55 µM.

Take `Cc1ccc(NC2=NCC(Cc3ccc(Br)cc3)S2)cc1` (centres undefined): the AC50 was 6.73 µM.

Consider `CC(=O)c1ccc(N2CCC(c3cc(-c4ccc(Cl)cc4)n[nH]3)CC2)c([N+](=O)[O-])c1`, for which the AC50 was 3.62 µM.

Regarding `O=c1c2cn[nH]c2nc(SCc2ccccc2F)n1-c1ccc(Br)cc1`, the AC50 is 4.9 µM.

Regarding `O=C(Nc1cccc(-c2csc(-c3ccccc3)n2)c1)c1cccs1`, the AC50 is 5.22 µM.

For `COc1ccc(-c2sc3ccccc3c2-c2ccc(O)cc2)cc1`, the AC50 was 6.43 µM.

`CCOC(=O)c1ccc(NC(=O)c2nc[nH]c2C(=O)NCCNC(=O)c2[nH]cnc2C(=O)Nc2ccc(C(=O)OCC)cc2)cc1`: the AC50 is 0.624 µM.

As for `CC(NC(=O)C1CCC(C(=O)NC(C)c2ccccc2)CC1)c1ccccc1` (centres undefined), the AC50 was > 19.5 µM (inactive).

For the molecule `COc1ccc(-c2ccc(C)cc2)cc1[C@H]1[C@@H]2C=CCC[C@@]2(C)C(=O)N1Cc1ccccc1`, the AC50 is 3.87 µM.

For the molecule `CCCc1cc(SCC(=O)Nc2c(C)n(C)n(-c3ccccc3)c2=O)n2c(nc3ccccc32)c1C#N`, the AC50 is > 19.5 µM (inactive).
